Measured values reported in PubChem BioAssay AID328 (DTP/NCI, 2004).
Values joined by “and” are separate entries in the source; they are usually repeats but may differ in a detail not shown here. Equal entries are not always repeated. Inconclusive results and toxic doses are left out.

Tested on: BDF1 mice, P388 leukemia ip, median survival T/C
Assay: NCI In Vivo Anticancer Drug Screen. Data for tumor model P388 Leukemia (intraperitoneal) in B6D2F1 (BDF1) mice
Settings: endpoint: median survival time, higher = longer survival
Method in brief: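 Transplantable tumour in mice; compound vs vehicle dosing; survival scored; ratio of treated to control reported.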

[1] = dose: 100.0 mg/kg/injection, schedule: Q01DX009 (ip), vehicle: Klucel (hydroxypropylcellulose) (HPC)
[2] = dose: 100.0 mg/kg/injection, schedule: Q04DX003 (ip), vehicle: saline with Tween-80
[3] = dose: 200.0 mg/kg/injection, schedule: Q04DX003 (ip), vehicle: saline with Tween-80
[4] = dose: 400.0 mg/kg/injection, schedule: Q04DX003 (ip), vehicle: saline with Tween-80
[5] = dose: 3.0 mg/kg/injection, schedule: Q04DX003 (ip), vehicle: Klucel (hydroxypropylcellulose) (HPC)
[6] = dose: 100.0 mg/kg/injection, schedule: Q01DX009 (ip), vehicle: saline with Tween-80
[7] = dose: 100.0 mg/kg/injection, schedule: Q01DX009 (ip), vehicle: other
[8] = dose: 200.0 mg/kg/injection, schedule: Q01DX009 (ip), vehicle: other

## O=P(CCCl)(OCCCl)N1CCCCC1 (configuration not stated)
dose: 50.0 mg/kg/injection, schedule: Q04DX003 (ip), vehicle: saline
  T/C: 104 % of control
dose: 100.0 mg/kg/injection, schedule: Q01DX009 (ip), vehicle: saline
  T/C: 104 % of control
dose: 100.0 mg/kg/injection, schedule: Q04DX003 (ip), vehicle: saline
  T/C: 108 % of control
dose: 200.0 mg/kg/injection, schedule: Q01DX009 (ip), vehicle: saline
  T/C: 104 % of control
dose: 400.0 mg/kg/injection, schedule: Q01DX009 (ip), vehicle: saline
  T/C: 109 % of control

## CNC(=S)N/N=C(/C)CCC(=O)O
dose: 6.75 mg/kg/injection, schedule: Q01DX009 (ip), vehicle: saline with Tween-80
  T/C: 87 % of control
dose: 13.5 mg/kg/injection, schedule: Q01DX009 (ip), vehicle: saline with Tween-80
  T/C: 88 % of control
dose: 27.0 mg/kg/injection, schedule: Q01DX009 (ip), vehicle: saline with Tween-80
  T/C: 86 % of control

## COc1ccc(CCN2CSC(=S)N(CCc3ccc(OC)c(OC)c3)C2)cc1OC
[1]
  T/C: 100 % of control
dose: 200.0 mg/kg/injection, schedule: Q01DX009 (ip), vehicle: Klucel (hydroxypropylcellulose) (HPC)
  T/C: 110 % of control
dose: 400.0 mg/kg/injection, schedule: Q01DX009 (ip), vehicle: Klucel (hydroxypropylcellulose) (HPC)
  T/C: 94 % of control

## O=C(NC(CO)C(O)c1ccc([N+](=O)[O-])cc1)C(Cl)Cl (configuration not stated)
[2]
  T/C: 104 % of control
[3]
  T/C: 100 % of control
[4]
  T/C: 109 % of control

## Cc1nc(Cl)c2c(n1)Oc1nc(C)nc(Cl)c1C2c1ccc(Cl)cc1
dose: 100.0 mg/kg/injection, schedule: Q01DX001 (ip), vehicle: Klucel (hydroxypropylcellulose) (HPC)
  T/C: 88 % of control and 100 % of control
dose: 200.0 mg/kg/injection, schedule: Q01DX001 (ip), vehicle: Klucel (hydroxypropylcellulose) (HPC)
  T/C: 95 % of control
dose: 400.0 mg/kg/injection, schedule: Q01DX001 (ip), vehicle: Klucel (hydroxypropylcellulose) (HPC)
  T/C: 88 % of control and 90 % of control

## N=C(N)c1ccc(C(=O)Oc2ccc([N+](=O)[O-])cc2)cc1
dose: 50.0 mg/kg/injection, schedule: Q04DX003 (ip), vehicle: saline with Tween-80
  T/C: 109 % of control
[2]
  T/C: 109 % of control
[3]
  T/C: 109 % of control

## CNC(=O)c1ccc(C(=O)NC)cc1
[2]
  T/C: 100 % of control
[3]
  T/C: 100 % of control
[4]
  T/C: 109 % of control

## NC(=S)c1ccncc1
[2]
  T/C: 86 % of control
[3]
  T/C: 86 % of control
[4]
  T/C: 90 % of control

## Clc1nnc(Cl)c(Cl)c1Cl
dose: 0.22 mg/kg/injection, schedule: Q01DX009 (ip), vehicle: Klucel (hydroxypropylcellulose) (HPC)
  T/C: 100 % of control
dose: 0.22 mg/kg/injection, schedule: Q04DX003 (ip), vehicle: Klucel (hydroxypropylcellulose) (HPC)
  T/C: 100 % of control
dose: 0.45 mg/kg/injection, schedule: Q01DX009 (ip), vehicle: Klucel (hydroxypropylcellulose) (HPC)
  T/C: 91 % of control
dose: 0.45 mg/kg/injection, schedule: Q04DX003 (ip), vehicle: Klucel (hydroxypropylcellulose) (HPC)
  T/C: 118 % of control
dose: 0.9 mg/kg/injection, schedule: Q01DX009 (ip), vehicle: Klucel (hydroxypropylcellulose) (HPC)
  T/C: 91 % of control
dose: 0.9 mg/kg/injection, schedule: Q04DX003 (ip), vehicle: Klucel (hydroxypropylcellulose) (HPC)
  T/C: 104 % of control
dose: 1.3 mg/kg/injection, schedule: Q04DX003 (ip), vehicle: Klucel (hydroxypropylcellulose) (HPC)
  T/C: 104 % of control
dose: 2.0 mg/kg/injection, schedule: Q04DX003 (ip), vehicle: Klucel (hydroxypropylcellulose) (HPC)
  T/C: 113 % of control
dose: 2.8 mg/kg/injection, schedule: Q01DX009 (ip), vehicle: saline
  T/C: 87 % of control
[5]
  T/C: 104 % of control

## CC1(C)Oc2cc3oc(C(=O)O)cc(=O)c3cc2-c2ccc(O)cc21
dose: 100.0 mg/kg/injection, schedule: Q04DX002 (ip), vehicle: saline with Tween-80
  T/C: 119 % of control
dose: 200.0 mg/kg/injection, schedule: Q04DX002 (ip), vehicle: saline with Tween-80
  T/C: 107 % of control
dose: 400.0 mg/kg/injection, schedule: Q04DX002 (ip), vehicle: saline with Tween-80
  T/C: 108 % of control

## CCC(=O)O[C@H]1CC[C@H]2[C@@H]3[C@@H](C)CC4=CC(=O)CC[C@]4(C)[C@H]3CC[C@]12C
[6]
  T/C: 105 % of control
dose: 200.0 mg/kg/injection, schedule: Q01DX009 (ip), vehicle: saline with Tween-80
  T/C: 95 % of control
dose: 400.0 mg/kg/injection, schedule: Q01DX009 (ip), vehicle: saline with Tween-80
  T/C: 95 % of control

## O.O=c1[nH]cc(Cl)c(=O)[nH]1.[NH2-].[NH2-].[Pt+2]
dose: 6.25 mg/kg/injection, schedule: Q01DX009 (ip), vehicle: water
  T/C: 118 % of control
dose: 12.5 mg/kg/injection, schedule: Q01DX009 (ip), vehicle: water
  T/C: 155 % of control
dose: 12.5 mg/kg/injection, schedule: Q04DX003 (ip), vehicle: water
  T/C: 123 % of control
dose: 25.0 mg/kg/injection, schedule: Q01DX009 (ip), vehicle: water
  T/C: 229 % of control and 171 % of control
dose: 25.0 mg/kg/injection, schedule: Q04DX003 (ip), vehicle: water
  T/C: 166 % of control
dose: 50.0 mg/kg/injection, schedule: Q01DX009 (ip), vehicle: water
  T/C: 192 % of control
dose: 50.0 mg/kg/injection, schedule: Q04DX003 (ip), vehicle: water
  T/C: 200 % of control

## Cc1ccc(CNc2ccc(F)cc2)cc1
[7]
  T/C: 100 % of control
[2]
  T/C: 95 % of control
dose: 178.0 mg/kg/injection, schedule: Q01DX009 (ip), vehicle: other
  T/C: 100 % of control
[8]
  T/C: 95 % of control
[3]
  T/C: 104 % of control
dose: 266.0 mg/kg/injection, schedule: Q01DX009 (ip), vehicle: other
  T/C: 109 % of control
dose: 400.0 mg/kg/injection, schedule: Q01DX009 (ip), vehicle: other
  T/C: 104 % of control
[4]
  T/C: 100 % of control

## CC(=O)OCCCC/C(=C/c1cc2ccccc2c2ccccc12)[N+](=O)[O-]
dose: 50.0 mg/kg/injection, schedule: Q01DX009 (ip), vehicle: Klucel (hydroxypropylcellulose) (HPC)
  T/C: 100 % of control
[1]
  T/C: 100 % of control

## CC(=O)OCC(=O)[C@@]1(O)CC[C@H]2[C@@H]3CCC4=CC(=O)C=C[C@]4(C)[C@H]3C(=O)C[C@@]21C
dose: 25.0 mg/kg/injection, schedule: Q01DX009 (ip), vehicle: saline with Tween-80
  T/C: 109 % of control
dose: 50.0 mg/kg/injection, schedule: Q01DX009 (ip), vehicle: saline with Tween-80
  T/C: 122 % of control
dose: 63.75 mg/kg/injection, schedule: Q01DX009 (ip), vehicle: Klucel (hydroxypropylcellulose) (HPC)
  T/C: 113 % of control
[6]
  T/C: 118 % of control
dose: 100.0 mg/kg/injection, schedule: Q04DX003 (ip), vehicle: Klucel (hydroxypropylcellulose) (HPC)
  T/C: 100 % of control
dose: 127.5 mg/kg/injection, schedule: Q01DX009 (ip), vehicle: Klucel (hydroxypropylcellulose) (HPC)
  T/C: 122 % of control
dose: 200.0 mg/kg/injection, schedule: Q04DX003 (ip), vehicle: Klucel (hydroxypropylcellulose) (HPC)
  T/C: 104 % of control
dose: 255.0 mg/kg/injection, schedule: Q01DX009 (ip), vehicle: Klucel (hydroxypropylcellulose) (HPC)
  T/C: 100 % of control
dose: 400.0 mg/kg/injection, schedule: Q04DX003 (ip), vehicle: Klucel (hydroxypropylcellulose) (HPC)
  T/C: 104 % of control

## CC(=O)C(C(=O)Nc1ccccc1)c1cc(NS(=O)(=O)c2ccccc2)ccc1O (configuration not stated)
dose: 100.0 mg/kg/injection, schedule: Q01DX001 (ip), vehicle: saline with Tween-80
  T/C: 90 % of control
dose: 200.0 mg/kg/injection, schedule: Q01DX001 (ip), vehicle: saline with Tween-80
  T/C: 95 % of control
dose: 400.0 mg/kg/injection, schedule: Q01DX001 (ip), vehicle: saline with Tween-80
  T/C: 86 % of control

## N#CS/C=C\C(N)=O
dose: 1.5 mg/kg/injection, schedule: Q01DX009 (ip), vehicle: Klucel (hydroxypropylcellulose) (HPC)
  T/C: 100 % of control
dose: 1.5 mg/kg/injection, schedule: Q04DX003 (ip), vehicle: Klucel (hydroxypropylcellulose) (HPC)
  T/C: 95 % of control
dose: 3.0 mg/kg/injection, schedule: Q01DX009 (ip), vehicle: Klucel (hydroxypropylcellulose) (HPC)
  T/C: 91 % of control
[5]
  T/C: 95 % of control
dose: 6.0 mg/kg/injection, schedule: Q01DX009 (ip), vehicle: Klucel (hydroxypropylcellulose) (HPC)
  T/C: 89 % of control and 91 % of control
dose: 6.0 mg/kg/injection, schedule: Q04DX003 (ip), vehicle: Klucel (hydroxypropylcellulose) (HPC)
  T/C: 100 % of control
dose: 6.25 mg/kg/injection, schedule: Q04DX003 (ip), vehicle: Klucel (hydroxypropylcellulose) (HPC)
  T/C: 90 % of control
dose: 12.5 mg/kg/injection, schedule: Q04DX003 (ip), vehicle: Klucel (hydroxypropylcellulose) (HPC)
  T/C: 100 % of control

## CCCCOC(=O)c1cccc(C(=O)OCCCC)c1Sc1ccccc1
dose: 50.0 mg/kg/injection, schedule: Q01DX009 (ip), vehicle: other
  T/C: 105 % of control
[7]
  T/C: 100 % of control
[8]
  T/C: 107 % of control
